Test results as given in patent publication US20050228016A1, “TETRAHYDROQUINOLINES FOR MODULATING THE EXPRESSION OF EXOGENOUS GENES VIA AN ECDYSONE RECEPTOR COMPLEX” (priority 2002, published 2005).

Legend:
[1] = molecular target: T1, Bombyx mori EcR (VP16-BmEcR, CVBE) (Bombyx mori, UniProt P49881); assay: Z3 assay (HEK-293 clone Z3 with CVBE and 6x EcRE LacZ, β-galactosidase reporter); type: cell-based; details: 48 h, average of two wells
T1 construct: expressed in transfected cells
T1 sequence (P49881 86-606): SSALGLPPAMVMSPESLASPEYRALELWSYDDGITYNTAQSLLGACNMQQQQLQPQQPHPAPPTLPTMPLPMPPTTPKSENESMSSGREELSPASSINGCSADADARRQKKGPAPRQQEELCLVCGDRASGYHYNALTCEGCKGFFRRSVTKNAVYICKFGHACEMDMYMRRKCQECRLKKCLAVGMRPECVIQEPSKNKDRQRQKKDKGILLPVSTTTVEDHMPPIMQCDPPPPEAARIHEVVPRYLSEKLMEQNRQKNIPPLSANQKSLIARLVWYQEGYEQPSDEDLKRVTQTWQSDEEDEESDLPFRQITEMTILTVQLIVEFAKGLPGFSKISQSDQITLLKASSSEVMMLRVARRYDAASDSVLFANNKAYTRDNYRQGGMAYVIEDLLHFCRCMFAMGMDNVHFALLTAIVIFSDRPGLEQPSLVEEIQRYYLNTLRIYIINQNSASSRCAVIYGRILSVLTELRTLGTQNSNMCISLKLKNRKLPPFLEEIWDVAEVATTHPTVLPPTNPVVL
From the text: Dr. F. Gage provided a population of stably transformed cells containing CVBE and 6× EcRE as described in (Suhr et. al. 1998). Human 293 kidney cells, also referred to as HEK-293 cells, were sequentially infected with retroviral vectors encoding first the switch construct CVBE, and subsequently the reporter construct 6× EcRE Lac Z. The switch construct contained the coding sequence for amino acids 26-546 from Bombyx nori EcR (BE) (Iatrou) inserted in frame and downstream of the VP16 transactivation domain (VBE). A synthetic ATG start codon was placed under the control of cytomegalovirus (CVBE) immediate early promoter and flanked by long terminal repeats (LTR). The reporter-construct contained six copies of the ecdysone response element (EcRE) binding site placed upstream of LacZ and flanked on both sides with LTR sequences (6× EcRE).
Dilution cloning was used to isolate individual clones. Clones were selected using 450 μg/ml G418 and 100 ng/ml puromycin. Individual clones were evaluated based on their response in the presence and absence of test ligands.
Human 293 kidney cells stably transformed with CVBE and 6× EcRE lack were maintained in Minimum Essential Medium (Mediates, 10-010-CV) containing 10%.FBS (Life Technologies, 26140-087),[…] G418 (Mediates, 30-234-CR), and […] (Sigma, P-7255), at 37° C. in an atmosphere containing 5% CO2 and were subculture when they reached 75% confluence.
Z3 cells were seeded into 96-well tissue culture plates at a concentration of 2.5×10^3 cells per well and incubated at 37° C. in 5% CO2 for twenty-four hours. Stock solutions of ligands were prepared in DMSO. Ligand stock solutions were diluted 100.fold in media and 50 μL of this diluted ligand solution (33 μM) was added to cells.
Reporter gene expression was evaluated 48 hours after treatment of cells, β-galactosidase activity was measured using Gal Screen™ bioluminescent reporter gene assay system from Tropix (GSY1000).
Flanking both constructs are long terminal repeats, G418 and puromycin are selectable markers, CMV is the cytomegalovirus promoter, VBE is coding sequence for amino acids 26-546 from Bombyx mori EcR inserted downstream of the VP16 transactivation domain, 6× EcRE is six copies of the ecdysone response element, lacZ encodes for the reporter enzyme β-galactosidase.

[2] = molecular target: T2, Gal4DBD/AaEcR (DEF) (Aedes aegypti, UniProt P49880); assay: cell-based; type: cell-based; details: 33 μM; 3T3 cells; 48 h; average of two wells
T2 construct: The wildtype D, E, and F domains from mosquito Aedes aegypti EcR; expressed in transfected cells; host or cells: 3T3 cells
T2 sequence (P28704 286-520 A311G/G315S/G445S/I449V): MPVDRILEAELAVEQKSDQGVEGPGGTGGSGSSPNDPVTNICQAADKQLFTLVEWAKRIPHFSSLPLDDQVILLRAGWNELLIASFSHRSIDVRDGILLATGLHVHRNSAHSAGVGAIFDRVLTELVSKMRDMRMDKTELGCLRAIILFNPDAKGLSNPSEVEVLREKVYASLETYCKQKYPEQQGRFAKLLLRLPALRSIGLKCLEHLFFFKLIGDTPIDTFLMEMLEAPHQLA
T2 sequence (P49880 405-776): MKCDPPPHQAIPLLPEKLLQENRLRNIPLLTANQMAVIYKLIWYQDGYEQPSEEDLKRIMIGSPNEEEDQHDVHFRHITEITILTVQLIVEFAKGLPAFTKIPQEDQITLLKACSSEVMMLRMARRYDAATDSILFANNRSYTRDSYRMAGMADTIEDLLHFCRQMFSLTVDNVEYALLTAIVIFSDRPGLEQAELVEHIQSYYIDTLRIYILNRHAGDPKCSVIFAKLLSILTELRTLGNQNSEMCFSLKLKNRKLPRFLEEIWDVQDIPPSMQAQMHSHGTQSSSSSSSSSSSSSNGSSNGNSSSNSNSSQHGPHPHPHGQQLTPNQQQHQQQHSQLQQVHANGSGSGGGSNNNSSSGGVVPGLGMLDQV
Protocol: 3T3 cells were trypsinized and plated at 2.5×10^3 cells/well on a 96-well plate. After incubation for 24 h at 37° C. under 5% CO2, cells were transfected with the Gal4DBD/AaEcR (DEF) gene expression cassette and the reporter plasmid, pFRLuc, containing a 5× GAL4 response element and the firefly luciferase gene in serum free media using Superfect (Qiagen). After transfection for 4 h at 37° C., the cells were treated with ligand in serum media. […] Single dose testing was performed at 33 μM.

| Structure (SMILES) | Fold Induction Average, Z3V1 Assay 33 μM [1] | Fold Induction Average, AA_3T3V1 Assay 33 μM [2] |
| --- | --- | --- |
| C[C@H]1C[C@H](Nc2ccc(F)cc2)c2cc(F)ccc2N1C(=O)c1cccc(C(F)(F)F)c1 (relative stereo) [Compound I-79] | 137 fold | 595 fold |
| CC1CC(Nc2ccccc2)c2ccccc2N1C(=O)COc1ccc(F)cc1 (stereo not shown) [Compound I-159] | 1 fold | 12 fold |
| COC(=O)c1ccc(C(=O)N2c3ccc(C)cc3[C@@H](Nc3ccc(C)cc3)C[C@@H]2C)cc1 (relative stereo) [Compound I-89] | 1 fold | 30 fold |
| CC1CC(Nc2ccccc2)c2ccccc2N1C(=O)c1ccc(Cl)nc1 (stereo not shown) [Compound I-103] | 4 fold | 341 fold |
| CC1CC(Nc2ccccc2)c2ccccc2N1C(=O)c1ccccc1 (stereo not shown) [Compound I-97] | 1 fold | 37 fold |
| Cc1ccc(N[C@H]2C[C@H](C)N(C(=O)c3ccc(C(F)(F)F)cc3)c3ccc(C)cc32)cc1 (relative stereo) [Compound I-76] | 1 fold | 741 fold |
| CC1CC(Nc2ccccc2)c2ccccc2N1C(=O)c1ccc(Cl)c(F)c1 (stereo not shown) [Compound I-105] | 30 fold | 369 fold |
| Cc1ccc(NC2CC(C)N(C(=O)c3ccno3)c3ccc(C)cc32)cc1 (stereo not shown) [Compound I-109] | 1 fold | 33 fold |
| COc1ccc(C(=O)N2c3ccccc3[C@@H](Nc3ccccc3)C[C@@H]2C)cc1 (relative stereo) [Compound I-83] | 8 fold | 345 fold |
| CCc1ccc(C(=O)N2c3ccccc3C(Nc3ccccc3)CC2C)cc1 (stereo not shown) [Compound I-62] | 43 fold | 744 fold |
| COc1cccc(C(=O)N2c3ccc(C)cc3C(Nc3ccc(C)cc3)CC2C)c1C (stereo not shown) [Compound I-54] | 7 fold | 35 fold |
| Cc1ccc(N[C@H]2C[C@H](C)N(C(=O)c3ccc(C(F)(F)F)c(F)c3)c3ccc(C)cc32)cc1 (relative stereo) [Compound I-23] | 1 fold | 87 fold |
| C[C@H]1C[C@H](Nc2ccccc2)c2ccccc2N1C(=O)c1cccc(C(F)(F)F)c1 (relative stereo) [Compound I-70] | 26 fold | 376 fold |
| CC(C)C(=O)N1c2ccccc2C(N(C(=O)c2ccccc2)c2ccc([N+](=O)[O-])cc2)CC1C (stereo not shown) [Compound I-178] | 1 fold | 1 fold |
| Cc1ccc(N[C@H]2C[C@H](C)N(C(=O)c3cccc(C(F)(F)F)c3)c3ccc(C)cc32)cc1 (relative stereo) [Compound I-75] | 2 fold | 13 fold |
| C[C@H]1C[C@H](Nc2ccc(F)cc2)c2cc(F)ccc2N1C(=O)c1cccc(F)c1 (relative stereo) [Compound I-77] | 153 fold | 272 fold |
| Cc1ccc(C(=O)N2c3ccccc3[C@@H](Nc3ccccc3)C[C@@H]2C)cc1 (relative stereo) [Compound I-82] | 1 fold | 79 fold |
| Cc1ccccc1C(=O)N1c2ccc(F)cc2C(Nc2ccc(F)cc2)CC1C (stereo not shown) [Compound I-56] | 8 fold | 158 fold |

| Structure (SMILES) | Fold Induction Average, Z3V1 Assay 33 μM [1] | Fold Induction Average, AA_3T3V1 Assay 33 μM [2] |
| --- | --- | --- |
| COc1ccccc1C(=O)N1c2ccc(F)cc2C(Nc2ccc(F)cc2)CC1C (stereo not shown) [Compound I-57] | 1 fold | 4 fold |
| CCC(=O)N1c2ccccc2C(N(C(=O)c2ccc([N+](=O)[O-])cc2)c2ccccc2)CC1C (stereo not shown) [Compound I-183] | 2 fold | 1 fold |
| CC1CC(Nc2ccccc2)c2ccccc2N1C(=O)c1ccc(NS(C)(=O)=O)cc1 (stereo not shown) [Compound I-175] | 5 fold | 1 fold |
| Cc1ccc(C(=O)N2c3ccc(F)cc3[C@@H](Nc3ccc(F)cc3)C[C@@H]2C)cc1 (relative stereo) [Compound I-92] | 100 fold | 229 fold |
| CC1CC(Nc2ccccc2)c2ccccc2N1C(=O)c1ccc(I)cc1 (stereo not shown) [Compound I-168] | 3 fold | 401 fold |
| CC1CC(Nc2ccccc2)c2ccccc2N1C(=O)CCC1CCCCC1 (stereo not shown) [Compound I-170] | 1 fold | 2 fold |
| CCc1ccc(C(=O)N2c3ccc(F)cc3[C@@H](Nc3ccc(F)cc3)C[C@@H]2C)cc1 (relative stereo) [Compound I-66] | 206 fold | 813 fold |
| CCc1c(OC)cccc1C(=O)N1c2ccccc2C(Nc2ccccc2)CC1C (stereo not shown) [Compound I-107] | 6 fold | 636 fold |
| Cc1ccc(NC2CC(C)N(C(=O)c3ccc(C)cc3)c3ccccc32)cc1 (mixture of isomers) [Compound I-45] | 3 fold | 67 fold |
| Cc1ccc(C(=O)N2c3ccccc3C(Nc3ccc(F)cc3)CC2C)cc1 (mixture of isomers) [Compound I-40] | 24 fold | 81 fold |
| COC(=O)c1ccc(C(=O)N2c3ccccc3[C@@H](Nc3ccccc3)C[C@@H]2C)cc1 (relative stereo) [Compound I-84] | 3 fold | 508 fold |
| C[C@H]1C[C@@H](Nc2ccc(F)cc2)c2cc(F)ccc2N1C(=O)c1ccc(C(F)(F)F)c(F)c1 (relative stereo) [Compound I-25] | 1 fold | 147 fold |
| COc1ccc(C(=O)N2c3ccc(F)cc3C(Nc3ccc(F)cc3)CC2C)cc1 (stereo not shown) [Compound I-101] | 2 fold | 561 fold |
| CC1CC(Nc2ccccc2)c2ccccc2N1C(=O)c1ccnc(Cl)c1 (stereo not shown) [Compound I-106] | 83 fold | 1053 fold |
| CC1CC(Nc2ccccc2)c2ccccc2N1C(=O)c1ccc(Cl)c(Cl)c1 (stereo not shown) [Compound I-165] | 1 fold | 1 fold |
| C[C@H]1C[C@H](Nc2ccc(F)cc2)c2cc(F)ccc2N1C(=O)c1ccc(C(F)(F)F)cc1 (relative stereo) [Compound I-80] | 37 fold | 914 fold |
| Cc1ccc(NC2CC(C)N(C(=O)c3ccc(Cl)cc3)c3ccc(C)cc32)cc1 (stereo not shown) [Compound I-63] | 1 fold | 812 fold |
